# System: rodent lifetime carcinogenesis bioassay, tumor incidence TD50
# Test: chronic cancer bioassays in animals – CPDB, compiled studies (AID 1745844)
# Conditions: rat, strain Fischer 344, males, in drinking water, dosed 88 weeks, study length 92 weeks
smiles,measurement,setting,value
COc1cc(-c2ccc(N)c(OC)c2)ccc1N,TD50,"site: adrenal medulla, lesion: pheochromocytoma benign, bilateral + pheochromocytoma, malignant + pheochromocytoma, benign",2.11 mg/kg/day
same,TD50,"site: all sites + colon, ascending + cecum + colon + colon, descending + duodenum + ileum + jejunum + liver + palate + pharynx + preputial gland + rec, lesion: mesothelioma, benign + mesothelioma, malignant + adenomatous polyp + mucinous cystadenocarcinoma + adenocarcinoma + hepatocellular",0.677 mg/kg/day
same,TD50,"site: all sites, lesion: mesothelioma, benign + mesothelioma, malignant",27.4 mg/kg/day
same,TD50,"site: all sites, lesion: mononuclear-cell leukemia",2.5 mg/kg/day
same,TD50,"site: any site (literature study), lesion: several types, types named in the paper",0.565 mg/kg/day
same,TD50,"site: brain + cerebellum, cerebrum + cerebrum + cerebellum, lesion: astrocytoma, malignant",10.9 mg/kg/day
same,TD50,"site: cecum + colon + colon, descending + rectum, lesion: mucinous cystadenocarcinoma + adenocarcinoma",38 mg/kg/day
same,TD50,"site: colon, ascending + cecum + colon + colon, descending + rectum, lesion: adenomatous polyp + mucinous cystadenocarcinoma + adenocarcinoma",9.91 mg/kg/day
same,TD50,"site: colon, ascending + colon, descending + rectum, lesion: adenomatous polyp",13.6 mg/kg/day
same,TD50,"site: duodenum + ileum + jejunum, lesion: adenocarcinoma + mucinous cystadenocarcinoma",8.44 mg/kg/day
same,TD50,"site: liver, lesion: hepatocellular adenoma + hepatocellular carcinoma + neoplastic nodule",7.8 mg/kg/day
same,TD50,"site: liver, lesion: hepatocellular carcinoma + neoplastic nodule",7.8 mg/kg/day
same,TD50,"site: liver, lesion: neoplastic nodule",12.4 mg/kg/day
same,TD50,"site: palate + pharynx + tongue, lesion: squamous-cell carcinoma + squamous-cell papilloma",4.22 mg/kg/day
same,TD50,"site: palate, lesion: squamous-cell carcinoma + squamous-cell papilloma",8.21 mg/kg/day
same,TD50,"site: palate, lesion: squamous-cell papilloma",8.35 mg/kg/day
same,TD50,"site: pharynx + tongue, lesion: squamous-cell papilloma",4.49 mg/kg/day
same,TD50,"site: preputial gland, lesion: adenoma + adenoma, bilateral + carcinoma + carcinoma, bilateral",1.78 mg/kg/day
same,TD50,"site: preputial gland, lesion: adenoma + adenoma, bilateral",3.28 mg/kg/day
same,TD50,"site: preputial gland, lesion: carcinoma + carcinoma, bilateral",4.65 mg/kg/day
same,TD50,"site: skin, lesion: basal-cell adenoma + basal-cell carcinoma + sebaceous gland carcinoma + sebaceous adenoma",0.767 mg/kg/day
same,TD50,"site: skin, lesion: basal-cell adenoma + basal-cell carcinoma",0.77 mg/kg/day
same,TD50,"site: skin, lesion: basal-cell adenoma + sebaceous adenoma",0.785 mg/kg/day
same,TD50,"site: skin, lesion: basal-cell adenoma",0.789 mg/kg/day
same,TD50,"site: skin, lesion: basal-cell carcinoma + sebaceous gland carcinoma",6.5 mg/kg/day
same,TD50,"site: skin, lesion: basal-cell carcinoma",6.55 mg/kg/day
same,TD50,"site: skin, lesion: keratoacanthoma",9.13 mg/kg/day
same,TD50,"site: skin, lesion: sebaceous gland carcinoma + sebaceous adenoma",24.6 mg/kg/day
same,TD50,"site: skin, lesion: squamous-cell carcinoma + squamous-cell papilloma",2.01 mg/kg/day
same,TD50,"site: skin, lesion: squamous-cell carcinoma",2.35 mg/kg/day
same,TD50,"site: skin, lesion: squamous-cell papilloma",6.6 mg/kg/day
same,TD50,"site: subcutaneous tissue, lesion: fibroma + neurofibroma",5.19 mg/kg/day
same,TD50,"site: subcutaneous tissue, lesion: fibroma",13.9 mg/kg/day
same,TD50,"site: subcutaneous tissue, lesion: fibrosarcoma + fibroma + neurofibroma + sarcoma",6.49 mg/kg/day
same,TD50,"site: subcutaneous tissue, lesion: fibrosarcoma + fibroma",13.6 mg/kg/day
same,TD50,"site: testis, lesion: interstitial-cell adenoma, bilateral + interstitial-cell adenoma",0.612 mg/kg/day
same,TD50,"site: thyroid gland, lesion: c-cell adenoma + c-cell carcinoma",4.7 mg/kg/day
same,TD50,"site: thyroid gland, lesion: c-cell adenoma",6.92 mg/kg/day
same,TD50,"site: tongue, lesion: squamous-cell carcinoma + squamous-cell papilloma",8.25 mg/kg/day
same,TD50,"site: tongue, lesion: squamous-cell papilloma",9.16 mg/kg/day

# — PubChem BioAssay AID1745844 (Carcinogenic Potency Database (CPDB), 2022)
